Reference: patent US6991804B2, “Delivery systems for periadventitial delivery for treatment of restenosis and anastomotic intimal hyperplasia” (Edwards Lifesciences Corporation, priority 2000, dated 2006)
Marks after values point to notes of the source that are not given here.

Tests used:
Carotid Vein Grafts = assay: Carotid vein grafts (femoral vein interposition, end-to-side anastomoses): percent stenoses of anastomoses by angiography; type: in vivo, Dogs
Description: The animal was heparinized (100 IU/kg body weight), and anticoagulated at the surgeon's discretion with additional heparin. The carotid artery was cross-clamped and transected. An interpositional graft with end-to-side anastamoses of the femoral vein to the carotid artery was performed. Anastomoses were identified with a surgical staple. Where indicated, the test or control articles were applied to a uniform thickness and allowed to harden. Grafts were placed in both carotid arteries, with the procedures done in series.
Image analysis was performed by a qualified vascular surgeon who also analyzed the data. REF Images from angiography were captured on a VHS tape. Digital images were captured from this tape and saved after which they were evaluated using NIH Image. The lumenal width of the native arterial segments proximal and distal to the vein grafts, and the proximal and distal anastomoses were measured. The percent stenoses of the anastomoses relative to the adjacent native arterial segment were reported.
Images were captured as described in section above, and were evaluated by NIH Image. The lumenal width of native arterial segments proximal and distal to the graft and the proximal and distal anastomoses were measured.

[1] = system: Balloon-injured Femoral Arteries; assay: Balloon-injured femoral arteries: lumenal width by angiography; type: in vivo, Dogs; conditions: 12 weeks
Description: (§1) Balloon injury to the femoral arteries by three sequences of inflation and removal of a 4 Fr. Fogarty catheter generated 5 cm lesions in each femoral artery that were or were not treated with test/control articles. Injured areas were tagged with a staple. The insertion site was repaired and the animal was closed.
Angiography of the femoral arteries was performed at the termination of the experiment. Images were captured as described above and analyzed using NIH Image. Injured areas were identified by radio-opaque clips, and by anatomy. The lumenal widths of the arterial segments were measured just distal to the arteriotomy, and in the mid- and distal portions of the injured segments. The percent stenoses of the anastomoses relative to the adjacent native arterial segment were reported. The mean and least values were reported.
Images from angiography were captured and analyzed as described previously. The lumenal widths of the arterial segments were measured immediately distal to the arteriotomy, and in the mid- and distal portions of the injured segments.

[2] = system: Balloon-injured Femoral Arteries; assay: Balloon-injured femoral arteries: morphometric analysis of histology (media, intima, lumen area); type: in vivo, Dogs
Description: as §1
Carotid arteries were exposed and the healing response was evaluated. The grafts, including anastomoses, were fixed under pressure in situ, and were removed along with 4 cm of proximal and distal host vessel. Femoral arteries were exposed and the healing response was observed. The femoral arteries were then fixed under pressure and removed with distal and proximal host tissue. Femoral and carotid arteries were stored in 10% neutral-buffered formalin until analysis by histology. Specimens for histological evaluation were processed and stained with Hematoxalin and Eosin and with Mallory's Trichrome by IDEXX Veterinary Services, West Sacramento, Calif.
Histology of the femoral arteries was analyzed with Adobe Photoshop. Briefly, (1) the lumen-vessel interface, (2) the internal elastic lamina, and (3) the external elastic lamina were traced on digital images from H&E stained tissue with the greatest amount of hyperplasia. The intimal area was determined by subtracting the area encompassing […]. The medial area was determined by subtracting the area encompassing (2) from (3). The area was measured as (1).
Histology of sections from areas spanning proximal and distal regions of the balloon-injured femorals and of native tissue proximal to the arteriotomy were evaluated by morphometric analysis as described above.

[3] = post-surgery
Description: Animals received standard laboratory diet proscribed in QCOP B618, with supplements provided at the discretion of a veterinarian; water was available ad libitum.
Post-operative care was performed as described in QCOP B809, along with prophylactic administration of antibiotics (Sulfamethoxaxole and Trimethoprin); analgesics were supplied as described in QCOP B803. 7 days post surgery, animals received 250 mg/day aspirin. The wound site was debrided and temperature, heart rate and respiratory rates were monitored daily the week following surgery. Angiography of the carotid sites was performed following surgery and monthly thereafter. Intravascular ultrasound (IVUS) was used to examine the vein grafts in 10 animals at the 12 week endpoint of the study.

[4] = angiography, 12 weeks, pooled Paclitaxel groups (4 dogs, 8 vessels)
[5] = pooled Paclitaxel groups (4 dogs, 8 vessels)
[6] = histology, 12 weeks, pooled Paclitaxel groups (4 dogs, 8 vessels)

Subcutaneous hematomas at the carotid site (animals affected/animals) ([3]; lesions resolved with time): 4/8 | Hematoma at the femoral site (animals affected/animals) ([3]; reduced in size with time and healed well): 2/8
SMILES: CC(=O)O[C@H]1C(=O)[C@@]2(C)[C@H]([C@H](OC(=O)c3ccccc3)[C@]3(O)C[C@H](OC(=O)[C@H](O)[C@@H](NC(=O)c4ccccc4)c4ccccc4)C(C)=C1C3(C)C)[C@]1(OC(C)=O)CO[C@@H]1C[C@@H]2O [Paclitaxel ®, paclitaxel]
Stenosis at anastomotic sites of carotid grafts (statement in words) (Carotid Vein Grafts; angiography at the 12 week endpoint): limited stenosis at the proximal and distal anastomotic sites | Per Cent Stenoses of Carotid Grafts ± Paclitaxel, Distal Anastomotic Site (mean ± s.d.) (Carotid Vein Grafts; [4]): 1.1 ± 2.2% | Per Cent Stenoses of Carotid Grafts ± Paclitaxel, Proximal Anastomotic Site (mean ± s.d) (Carotid Vein Grafts; [4]): 5.9 ± 6.5% | Difference between control, vehicle and Paclitaxel treatment groups in femoral lumenal width (statement in words) [1]: no significant difference | Least Lumenal Width of Balloon-Injured Segments Relative to Native Vessel ± Paclitaxel (Mean ± s.d) [1, 5]: 1.32 ± 0.47 mm | Men Lumenal Width of Balloon-Injured Segments Relative to Native Vessel ± Paclitaxel (Mean ± s.d.) [1, 5]: 1.52 ± 0.24 mm | Intima area of femoral artery in regions of intimal hyperplasia ± Paclitaxel (Mean ± s.d.) [2, 6]: 1.95 ± 1.00 mm^2 | Intima: Media Ratio ± Paclitaxel [2, 6]: 0.56 ± 0.23 | Lumen area of femoral artery in regions of intimal hyperplasia ± Paclitaxel (Mean ± s.d) [2, 6]: 4.98 ± 1.05* mm^2 | Media area of femoral artery in regions of intimal hyperplasia ± Paclitaxel (Mean ± s.d.) [2, 6]: 3.38 ± 0.84 mm^2 | Change in intimal: medial ratio (statement in words) ([2]; morphometric analysis of histology, femoral sections): absence of changes | Larger lumen width versus no Paclitaxel ([2]; morphometric analysis of histology, femoral sections with largest stenotic response, p</=0.06): 44%
